US11137396B2, “In vitro assays for assessing cell aging” (METAFORA BIOSYSTEMS, priority 2014, dated 2021)

Test system: hMSCs derived from ES cells
Test: XPR1/Glut1 ratio in senescence accelerated-model induced by mitomycin C (RBD labelling, flow cytometry)
Assay type: cell-based, human
Conditions: 1 or 10 μg/mL MMC for 3 hours, then 4 additional days; ES-derived hMSC; FIG. 5
Experimental: 80% confluent hMSCs derived from ES cells were treated for 3 hours with 1 or 10 μg/mL of mitomycin C (MMC, Sigma) or none (control cells). After the pulse of MMC, the cells were washed twice with PBS, detached with TrypLE Express for 5 minutes à 37° C. and re-plated in flasks for 4 additional days at the end of which the cells were detached for RBD labelling and the doubling time (h) was determined by counting.
3·10^4 cells were used for each binding and were transferred into a 96-well V-shape microplate. RBDs were premixed pairwise (Glut1.RBD.mouseFc and Xeno.RBD.rabbitFc) in culture medium containing 0.1% sodium azide and 1 mM EDTA. RBDs were added to hMSCs and incubated at 37° C. for 20 minutes. Cells were washed once with buffer B (PBS/2% FCS/0.1% sodium azide/1 mM EDTA) and then incubated with Alexa Fluor 647 goat anti-rabbit IgG (Life Technologies, 1/1 000) and R-PE goat anti-mouse IgG1 (Life technologies, 1/100) in buffer B. After 30 minutes of incubation at 4° C. in the dark, the cells were washed twice and resuspended in buffer B before flow cytometry analysis. Fluorescent signals were acquired on a FACSVerse flow cytometer (BD Biosciences) with 405, 488 and 640 nm excitation, and data analysis was performed using Flowjo software (Tree Star Inc.).
“Fluorescence minus One” controls were used to establish background level in RBD channels (R-PE and AF647). […]

Question: For CO[C@@]12[C@H](COC(N)=O)C3=C(C(=O)C(C)=C(N)C3=O)N1C[C@@H]1N[C@@H]12 [Mitomycin C, mitomycin C], which “XPR1/Glut1 ratio normalized to the control condition” value is on record?
Answer: increases the XPR1/Glut1 ratio in a dose-dependant manner
